Assay results published in patent publication US4060634A (Boehringer Mannheim G.m.b.H., priority 1973, dated 1977).
One block for each compound: values may come before it.

Columns and labels:
[1] = Solubility of glibenclamide in water; format: physicochemical
blood sugar = conditions: cited from earlier work
[2] = Particle surface area (BET method); format: physicochemical; conditions: precipitated or ground glibenclamide product

Compound: COc1ccc(Cl)cc1C(=O)NCCc1ccc(S(=O)(=O)NC(=O)NC2CCCCC2)cc1 [Example 6, glibenclamide]
particle surface area [2]: 5.2 m^2 /g

Compound: COc1ccc(Cl)cc1C(=O)NCCc1ccc(S(=O)(=O)NC(=O)NC2CCCCC2)cc1 [Example 7, glibenclamide]
particle surface area [2]: 7.8 m^2 /g

Compound: COc1ccc(Cl)cc1C(=O)NCCc1ccc(S(=O)(=O)NC(=O)NC2CCCCC2)cc1 [Example 5, glibenclamide]
particle surface area [2]: 10.3 m^2 /g

Compound: COc1ccc(Cl)cc1C(=O)NCCc1ccc(S(=O)(=O)NC(=O)NC2CCCCC2)cc1 [Example 3, glibenclamide]
particle surface area [2]: 6.0 m^2 /g

Compound: COc1ccc(Cl)cc1C(=O)NCCc1ccc(S(=O)(=O)NC(=O)NC2CCCCC2)cc1 [Example 4, glibenclamide]
particle surface area [2]: 6.8 m^2 /g

Further lines, with some results ahead:

solubility in water, pH of minimum [1]: reaches a minimum at a pH of 4
Compound: COc1ccc(Cl)cc1C(=O)NCCc1ccc(S(=O)(=O)NC(=O)NC2CCCCC2)cc1 [glibenclamide, N-4-[2-(5-chloro-2-methoxybenzamido)-ethyl]-phenyl-sulfonyl-N'-cyclohexylurea]
blood sugar lowering action (blood sugar; among sulfonylurea derivatives): greatest hitherto known blood sugar lowering action
side effects (blood sugar; in vivo): lowest degree of side effects

particle surface area [2]: 5.79 m^2 /g
Compound: COc1ccc(Cl)cc1C(=O)NCCc1ccc(S(=O)(=O)NC(=O)NC2CCCCC2)cc1 [Example 1, glibenclamide]

particle surface area [2]: 9.8 m^2 /g
Compound: COc1ccc(Cl)cc1C(=O)NCCc1ccc(S(=O)(=O)NC(=O)NC2CCCCC2)cc1 [Example 2, glibenclamide]

particle surface area [2]: 5.8 m^2 /g
Compound: COc1ccc(Cl)cc1C(=O)NCCc1ccc(S(=O)(=O)NC(=O)NC2CCCCC2)cc1 [Example 8, glibenclamide]
